US20100196882A1, “GALECTIN-3 nsSNP MARKER FOR CANCER” (priority 2009, published 2010)

Tests used:
Assay type in all cases: cell-based, human
[1] = system: BT-549 Gal-3 H^64 cells; experiment: Western blot analysis of PARP cleavage after cisplatin treatment; details: galectin-3 H^64 cells, 50 μM cisplatin, 24, 48, 72 hours
Description: (§1) FIGS. 4I and 4II show cisplatin induced apoptosis of BT-549 cells and cloned variants, FIG. 4I: % apoptosis in cells treated with 25 uM cisplatin for 72 hr at 37° C. and analyzed following MTT assay (ODs in the untreated control cells were calculated as 100%, and the values are the average of triplicate experiments, bars represent ±SD, *P>0.001), FIG. 4II: Western blot analysis of the expression of PARP in cells treated with 50 μM cisplatin after 24, 48, and 72 hours, IIA: BT-549; IIB: BT-549 Gal-3 H^64; IIC: BT-549 Gal-3 P^64 (β-Actin was used as loading control. 1—untreated; 2—24 hours; 3—48 hours; 4—72 hours), FIGS. 4IIIA-B and 4IIIA′-C′: Immunohistochemical analysis of intact and cleaved galectin-3 in breast cancer progression. To investigate the possible functional significance of this allelic variation, BT-549 stable cell clones over-expressing either Galectin-3 P^64 or H^64 variant after transfection, selection, and cloning of BT-549 galectin-3 null cells were generated. […] In parental and P64 clone, the apoptotic cells were 76.5±1.34% and 71.5±3.02% respectively (FIG. 4I). That the cells' death was due to apoptosis was confirmed by the cleavage of PARP. […] A-A′: normal breast tissue, B-B′: ductal hyperplasia, C-C′: infiltrating lobular carcinoma. Arrows in B′ and C′ indicate the cleaved protein, representative pictures are presented from a study of 5 normal breast tissues, 10 lobular hyperplasia, and 8 infiltrating lobular carcinoma cases. To determine if cell death is due to apoptosis, 1×10^6 cells were seeded in 100 mm Petri dishes. After 24 hours of serum starvation, the cells were incubated with […]. After 24, 48, 72 hours, the cells were trypsinized, lysed and equivalent number of cells (1×10^5) were subjected to SDS-PAGE and Western blot analysis with a 1:200 dilution of anti-poly (ADP-ribose) polymerase (PARP), mouse monoclonal antibody (BioMol, Plymouth Meeting, Pa.). Blots were also immuno-reacted with a 1:5000 dilution of anti-b-actin mouse monoclonal antibody to normalize for variation in protein loading. […]

[2] = system: BT-549 cells; experiment: as above; details: parental BT-549 cells, 50 μM cisplatin, 24, 48, 72 hours
Description: as §1

[3] = system: BT-549 Gal-3 P^64 cells; experiment: as above; details: galectin-3 P^64 expressing cells, 50 μM cisplatin, 24, 48, 72 hours
Description: as §1

[4] = system: BT-549 Gal-3 H^64 cells; experiment: Cisplatin induced apoptosis, MTT assay; details: BT-549 cells expressing galectin-3 H^64 variant, 25 uM cisplatin, 72 hr, 37° C.
Description: (§2) FIGS. 4I and 4II show cisplatin induced apoptosis of BT-549 cells and cloned variants, FIG. 4I: % apoptosis in cells treated with 25 uM cisplatin for 72 hr at 37° C. and analyzed following MTT assay (ODs in the untreated control cells were calculated as 100%, and the values are the average of triplicate experiments, bars represent ±SD, *P>0.001), FIG. 4II: Western blot analysis of the expression of PARP in cells treated with 50 μM cisplatin after 24, 48, and 72 hours, IIA: BT-549; IIB: BT-549 Gal-3 H^64; IIC: BT-549 Gal-3 P^64 (β-Actin was used as loading control. 1—untreated; 2—24 hours; 3—48 hours; 4—72 hours), FIGS. 4IIIA-B and 4IIIA′-C′: Immunohistochemical analysis of intact and cleaved galectin-3 in breast cancer progression. To investigate the possible functional significance of this allelic variation, BT-549 stable cell clones over-expressing either Galectin-3 P^64 or H^64 variant after transfection, selection, and cloning of BT-549 galectin-3 null cells were generated. […] In parental and P64 clone, the apoptotic cells were 76.5±1.34% and 71.5±3.02% respectively (FIG. 4I). That the cells' death was due to apoptosis was confirmed by the cleavage of PARP. […] A-A′: normal breast tissue, B-B′: ductal hyperplasia, C-C′: infiltrating lobular carcinoma. Arrows in B′ and C′ indicate the cleaved protein, representative pictures are presented from a study of 5 normal breast tissues, 10 lobular hyperplasia, and 8 infiltrating lobular carcinoma cases. 2500 BT-549, BT-549 Gal-3 H^64 and BT-549 Gal-3 P^64 cells were seeded per well in triplicates onto 24 well culture dishes. In one set of wells, 25 μM cisplatin (Sigma-Aldrich Inc., St. Louis, Mo.) was added after 24 hr of seeding, the other non-treated set served as a control. Cell viability/apoptosis was determined after 72 hours by the mitochondrial-dependent reduction of 3-(4,5-dimethylthiazol-2-yl)-2,5-diphenyltetrazolium bromide (MTT) (Sigma-Aldrich Inc., St. Louis, Mo.) to formazan.

[5] = system: BT-549 cells; experiment: Cisplatin induced apoptosis, MTT assay; details: parental BT-549 cells, 25 uM cisplatin, 72 hr, 37° C.
Description: as §2

[6] = system: BT-549 Gal-3 P^64 cells; experiment: Cisplatin induced apoptosis, MTT assay; details: BT-549 galectin-3 P64 clone, 25 uM cisplatin, 72 hr, 37° C.
Description: as §2

`N.N.[Cl][Pt][Cl]` [cisplatin] was tested, and the “PARP cleavage (85 kDa cleaved polypeptide)” value (shortened to “PARP cleavage”) [1] was “refractive to PARP cleavage”, the “PARP cleavage” value [2] was “showed the 85 kDa cleaved polypeptide of PARP” and the “PARP cleavage” value [3] was “showed the 85 kDa cleaved polypeptide of PARP”. For the same molecule, the apoptotic cells [4] was 36.2±2.2%, the apoptotic cells [5] was 76.5±1.34% and the apoptotic cells [6] was 71.5±3.02%.
